Source: PMC8227885 (Viruses, 2021)

These substances were tested on RBD.
Type: binding, SARS-CoV-2
For ACE2 K31, the “biosensor activity with RBD-Lg, ACE2 deletions and mutants” value (“biosensor activity with RBD-Lg” for short) was “significantly reduced biosensor activity”.
With Sm-ACE2-18–415 the “biosensor activity with RBD-Lg” value was “reduced biosensor activity”.
With K353A the “biosensor activity with RBD-Lg” value was “almost abolished biosensor activity”.
In the case of Sm-ACE2-18-515, the “biosensor activity with RBD-Lg” value is reported as “significantly lower than that of Sm-ACE2-18-615/RBD-Lg”.
